BindingDB's records for doi:10.1021/acs.biochem.7b00041 (North Carolina State University, 2017)

Biological target: T1, Dehaloperoxidase B (Amphitrite ornata, UniProt Q9NAV7)
T1 sequence (Q9NAV7 whole entry): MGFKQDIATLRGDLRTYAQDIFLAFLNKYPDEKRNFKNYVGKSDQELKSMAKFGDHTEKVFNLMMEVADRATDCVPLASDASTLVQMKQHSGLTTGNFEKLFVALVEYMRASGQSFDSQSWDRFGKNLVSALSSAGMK
Test: Resonance Raman Assay
Conditions: pH 7
Protocol: Samples for solution resonance Raman spectroscopic studies were prepared withfinal concentrations of 75 μM WT DHP B and 3.75 mM azole in 100 mM KPi (pH 7 or 9) containing 10% MeOH (v/v) and then transferred to a 5 mm outside diameter glass NMR tube. Anaerobic samples were prepared inside a glovebox in the same fashion using septum-capped NMR tubes. Spectra were recorded by Soret band excitation (400−430 nm, 60 mW power) as previously described. [Barrios et al., J. Am. Chem. Soc., 136:7914-7925]

Molecule	Kd
c1ccc2[nH]cnc2c1 [1H-1,3-benzodiazole]	110 µM
c1c[nH]cn1	52 µM
1,2,3-benzotriazole::Benzotriazole (Bta)	82 µM
